Assay type in all cases: biochemical
The target in assay [1] is BlaC (β-lactamase of Mycobacterium tuberculosis) (Mycobacterium tuberculosis, UniProt P9WKD3, R229S).
Assay [2] deals with T1, BlaC (β-lactamase of Mycobacterium tuberculosis) (Mycobacterium tuberculosis, UniProt P9WKD3, G144N).
The target in assay [3] is BlaC (β-lactamase of Mycobacterium tuberculosis) (Mycobacterium tuberculosis, UniProt P9WKD3, K250R).
Assay [4] has as its target T1, BlaC (β-lactamase of Mycobacterium tuberculosis). The source holds these as a separate data set.

Regarding `O=C(O)[C@H]1/C(=C/CO)O[C@@H]2CC(=O)N21` [clavulanic acid], the “nitrocefin hydrolysis progress curves with 10 μM clavulanic acid” value in assay [1] is listed as “The R213S mutant was found to require more time than wt BlaC to reach full inhibition”. The “nitrocefin hydrolysis progress curves with 10 μM clavulanic acid (reduced inhibi)” value in assay [2] was “The G132N and K234R mutations convey resistance to inhibition, maintaining some level of activity even after prolonged exposure”; in assay [3], “The G132N and K234R mutations convey resistance to inhibition, maintaining some level of activity even after prolonged exposure”.
`O=C(Cc1cccs1)N[C@@H]1C(=O)N2C(C(=O)O)=C(/C=C/c3ccc([N+](=O)[O-])cc3[N+](=O)[O-])CS[C@H]12` [nitrocefin]: in assay [4], the “nitrocefin hydrolysis by purified enzyme” value is “is plotted for wild-type (WT) BlaC and single-amino-acid mutants”.

Values taken from publication PMC8284444, “Two β-Lactamase Variants with Reduced Clavulanic Acid Inhibition Display Different Millisecond Dynamics” (Antimicrobial Agents and Chemotherapy, 2021).
